Measured values from patent US20240165243A1, “EGFR DEGRADERS AND METHODS OF USE” (BeiGene Switzerland GmbH, priority 2021, published 2024).

System: EGFR (Del19/T790M/C797S)
Experiment: Cell degradation HTRF assay, H1975-clone #28 cells
Assay type: cell-based
Details: H1975-clone #28 (Del19/T790M/C797S) cells, 16 h treatment; for DC50: HTRF, read-out: H1975-clone#28 DTC DC50; for H1975-clone#28 DTC Dmax (%): maximum percentage of degradation
Experimental: Cell Degradation of Example 124-189
H1975-#28 and H1975-#25 cells are treated with compounds diluted in 0.2% DMSO cell culture medium on day 2, incubate for 16 h, 37° C., 5% CO2. the final concentration of compounds in all assay is start with 10 uM, 5-fold dilution, total 8 doses were included.
After 16 h treatment, add HTRF lysis buffer to each well; seal the plate and incubate 1 hour at room temperature on a plate shaker; Once the cells are lysed, 16 μL of cell lysate are transferred to a PE 384-well HTRF detection plate; 4 μL of pre-mixed HTRF antibodies are added to each well; Cover the plate with a plate sealer, spin 1000 rpm for 1 min, Incubate overnight at room temperature; Read on BMG PheraStar with HTRF protocol (337 nm-665 nm-620 nm).
The inhibition (degradation) percentage of the compound was calculated by the following equation:
Inhibition percentage of Compound=100−100×(Signal−low control)/(High control−low control), wherein signal=each test compound group.
High control=Cell group with added DMSO and without compound, indicating microplate readings without EGFR degradation;
Dmax is the maximum percentage of inhibition (degradation).
The IC50 (DC50) value of a compound can be obtained by fitting the following equation
Y=Bottom+(TOP−Bottom)/(1+((IC50/X)^hillslope))
Wherein, X and Y are known values, and IC50, Hillslope, Top and Bottom are the parameters obtained by fitting with software. Y is the inhibition percentage (calculated from the equation), X is the concentration of the compound; IC50 is the concentration of the compound when the 50% inhibition is reached. The smaller the IC50 value is, the stronger the inhibitory ability of the compound is. Vice versa, the higher the IC50 value is, the weaker the ability the inhibitory ability of the compound is; Hillslope represents the slope of the fitted curve, generally around 1*; Bottom represents the minimum value of the curve obtained by data fitting, which is generally 0%±20%; Top represents the maximum value of the curve obtained by data fitting, which is generally 100%±20%. The experimental data were fitted by calculating and analyzing with Dotmatics data analysis software. When Dmax<50%, DC50 will be automatically assigned as larger than […].

DC50 [nM]	Structure (SMILES)	H1975-clone#28 DTC Dmax (%)
8	CCc1cc(Nc2ncc(Br)c(Nc3cnc4ccccc4c3P(C)(C)=O)n2)c(OCC(F)(F)F)cc1N1CCC(N2CCN(CCC3CCN(c4cc(F)c(C5CCC(=O)NC5=O)c(F)c4)CC3)CC2)CC1 (stereo not drawn) [Example 186, 3-(4-(4-(2-(4-(1-(4-((5-bromo-4-((4-(dimethylphosphoryl)quinolin-3-yl)amino)pyrimidin-2-yl)amino)-2-ethyl-5-(2,2,2-trifluoroethoxy)phenyl)piperidin-4-yl)piperazin-1-yl)ethyl)piperidin-1-yl)-2,6-difluorophenyl)piperidine-2,6-dione]	72
0.8	CCc1cc(Nc2ncc(Br)c(Nc3cnc4cc(F)ccc4c3P(C)(C)=O)n2)c(OC)cc1N1CCC(N2CCN(CCc3ccc4c(c3)oc(=O)n4C3CCC(=O)NC3=O)CC2)CC1 (stereo not drawn) [Example 134, 3-(6-(2-(4-(1-(4-((5-bromo-4-((4-(dimethylphosphoryl)-7-fluoroquinolin-3-yl)amino)pyrimidin-2-yl)amino)-2-ethyl-5-methoxyphenyl)piperidin-4-yl)piperazin-1-yl)ethyl)-2-oxobenzo[d]oxazol-3(2H)-yl)piperidine-2,6-dione]	79
1.3	CCOc1cc(N2CCC(N3CCN(CCc4ccc5c(c4)oc(=O)n5C4CCC(=O)NC4=O)CC3)CC2)c(CC)cc1Nc1ncc(Br)c(Nc2cnc3cc(F)ccc3c2P(C)(C)=O)n1 (stereo not drawn) [Example 149, 3-(6-(2-(4-(1-(4-((5-bromo-4-((4-(dimethylphosphoryl)-7-fluoroquinolin-3-yl)amino)pyrimidin-2-yl)amino)-5-ethoxy-2-ethylphenyl)piperidin-4-yl)piperazin-1-yl)ethyl)-2-oxobenzo[d]oxazol-3(2H)-yl)piperidine-2,6-dione]	73
0.8	CCc1cc(Nc2ncc(Br)c(Nc3cnc4ccccc4c3P(C)(C)=O)n2)c(OC)cc1N1CCC(N2CCN(CCc3cccc4c3oc(=O)n4C3CCC(=O)NC3=O)CC2)CC1 (stereo not drawn) [Example 188, 3-(7-(2-(4-(1-(4-((5-bromo-4-((4-(dimethylphosphoryl)quinolin-3-yl)amino)pyrimidin-2-yl)amino)-2-ethyl-5-methoxyphenyl)piperidin-4-yl)piperazin-1-yl)ethyl)-2-oxobenzo[d]oxazol-3(2H)-yl)piperidine-2,6-dione]	84
4.4	CCOc1cc(N2CCC(N3CCN(CCc4cccc5c4n(C)c(=O)n5C4CCC(=O)NC4=O)CC3)CC2)c(CC)cc1Nc1ncc(Br)c(Nc2cnc3ccccc3c2P(C)(C)=O)n1 (stereo not drawn) [Example 140, 3-(4-(2-(4-(1-(4-((5-bromo-4-((4-(dimethylphosphoryl)quinolin-3-yl)amino)pyrimidin-2-yl)amino)-5-ethoxy-2-ethylphenyl)piperidin-4-yl)piperazin-1-yl)ethyl)-3-methyl-2-oxo-2,3-dihydro-1H-benzo[d]imidazol-1-yl)piperidine-2,6-dione]	84
1.6	CCc1cc(Nc2ncc(Br)c(Nc3cnc4ccccc4c3P(C)(C)=O)n2)c(OC)cc1N1CCC(N2CCN(CCc3ccc4c(c3)oc(=O)n4C3CCC(=O)NC3=O)CC2)CC1 (stereo not drawn) [Example 176, 3-(6-(2-(4-(1-(4-((5-bromo-4-((4-(dimethylphosphoryl)quinolin-3-yl)amino)pyrimidin-2-yl)amino)-2-ethyl-5-methoxyphenyl)piperidin-4-yl)piperazin-1-yl)ethyl)-2-oxobenzo[d]oxazol-3(2H)-yl)piperidine-2,6-dione]	73
1.2	CCc1cc(Nc2ncc(Br)c(Nc3cnc4ccccc4c3P(C)(C)=O)n2)c(OC)cc1N1CCC(N2CCN(C(=O)C3CCN(c4cc(F)c(C5CCC(=O)NC5=O)c(F)c4)CC3)CC2)CC1 (stereo not drawn) [Example 185, 3-(4-(4-(4-(1-(4-((5-bromo-4-((4-(dimethylphosphoryl)quinolin-3-yl)amino)pyrimidin-2-yl)amino)-2-ethyl-5-methoxyphenyl)piperidin-4-yl)piperazine-1-carbonyl)piperidin-1-yl)-2,6-difluorophenyl)piperidine-2,6-dione]	71
0.7	CCc1cc(Nc2ncc(Br)c(Nc3cnc4ccccc4c3P(C)(C)=O)n2)c(OC)cc1N1CCC(N2CCN(CCc3cccc4c3n(C3CC3)c(=O)n4C3CCC(=O)NC3=O)CC2)CC1 (stereo not drawn) [Example 155, 3-(4-(2-(4-(1-(4-((5-bromo-4-((4-(dimethylphosphoryl)quinolin-3-yl)amino)pyrimidin-2-yl)amino)-2-ethyl-5-methoxyphenyl)piperidin-4-yl)piperazin-1-yl)ethyl)-3-cyclopropyl-2-oxo-2,3-dihydro-1H-benzo[d]imidazol-1-yl)piperidine-2,6-dione]	85
0.8	CCc1cc(Nc2ncc(Br)c(Nc3cnc4cc(F)ccc4c3P(C)(C)=O)n2)c(OC)cc1N1CCC(N2CCN(CCc3cccc4c3n(C)c(=O)n4C3CCC(=O)NC3=O)CC2)CC1 (stereo not drawn) [Example 167, 3-(4-(2-(4-(1-(4-((5-bromo-4-((4-(dimethylphosphoryl)-7-fluoroquinolin-3-yl)amino)pyrimidin-2-yl)amino)-2-ethyl-5-methoxyphenyl)piperidin-4-yl)piperazin-1-yl)ethyl)-3-methyl-2-oxo-2,3-dihydro-1H-benzo[d]imidazol-1-yl)piperidine-2,6-dione]	74
2	CCc1cc(Nc2ncc(Br)c(Nc3cnc4ccccc4c3P(C)(C)=O)n2)c(OC)cc1N1CCC(N2CCN(C(=O)[C@H]3CCN(c4ccc5c(c4)C(C)(C)C(=O)N5C4CCC(=O)NC4=O)C3)CC2)CC1 (stereo partly drawn) [Example 168, 3-(5-((S)-3-(4-(1-(4-((5-bromo-4-((4-(dimethylphosphoryl)quinolin-3-yl)amino)pyrimidin-2-yl)amino)-2-ethyl-5-methoxyphenyl)piperidin-4-yl)piperazine-1-carbonyl)pyrrolidin-1-yl)-3,3-dimethyl-2-oxoindolin-1-yl)piperidine-2,6-dione]	47
1.1	CCc1cc(Nc2ncc(Br)c(Nc3cnc4cc(F)ccc4c3P(C)(C)=O)n2)c(OC)cc1N1CCC(N2CCN(CCc3cc(F)c4c(c3)oc(=O)n4[C@H]3CCC(=O)NC3=O)CC2)CC1 [Example 151, (S)-3-(6-(2-(4-(1-(4-((5-bromo-4-((4-(dimethylphosphoryl)-7-fluoroquinolin-3-yl)amino)pyrimidin-2-yl)amino)-2-ethyl-5-methoxyphenyl)piperidin-4-yl)piperazin-1-yl)ethyl)-4-fluoro-2-oxobenzo[d]oxazol-3(2H)-yl)piperidine-2,6-dione]	79
4.6	CCOc1cc(N2CCC(N3CCN(CCc4cc(F)c(C5CCC(=O)NC5=O)c(F)c4)CC3)CC2)c(C)cc1Nc1ncc(Br)c(Nc2cnc3ccccc3c2P(C)(C)=O)n1 (stereo not drawn) [Example 183, 3-(4-(2-(4-(1-(4-((5-bromo-4-((4-(dimethylphosphoryl)quinolin-3-yl)amino)pyrimidin-2-yl)amino)-5-ethoxy-2-methylphenyl)piperidin-4-yl)piperazin-1-yl)ethyl)-2,6-difluorophenyl)piperidine-2,6-dione]	73
